Experiment [1] deals with Transitional endoplasmic reticulum ATPase (Homo sapiens, UniProt P55072, C522A). As to the kind of experiment: Luminescence counterscreen assay for p97 inhibitors: dose response biochemical high throughput screening assay to identify inhibitors of the C522A mutant p97 ATPase: synthesized compounds. [Related pubchem assays: 1481, 1517, 1551 ]. On the technique in general: The purpose of a counterscreen is to sort out artefacts and off-target activity.

In experiment [2] the target is Transitional endoplasmic reticulum ATPase (Homo sapiens, UniProt P55072). Nature of the experiment: Luminescence dose response biochemical high throughput screening assay for inhibitors of the p97 ATPase: synthesized compounds. [Related pubchem assays: 1481, 1517 ].
Transitional endoplasmic reticulum ATPase (Homo sapiens, UniProt P55072), sequence (P55072 whole entry): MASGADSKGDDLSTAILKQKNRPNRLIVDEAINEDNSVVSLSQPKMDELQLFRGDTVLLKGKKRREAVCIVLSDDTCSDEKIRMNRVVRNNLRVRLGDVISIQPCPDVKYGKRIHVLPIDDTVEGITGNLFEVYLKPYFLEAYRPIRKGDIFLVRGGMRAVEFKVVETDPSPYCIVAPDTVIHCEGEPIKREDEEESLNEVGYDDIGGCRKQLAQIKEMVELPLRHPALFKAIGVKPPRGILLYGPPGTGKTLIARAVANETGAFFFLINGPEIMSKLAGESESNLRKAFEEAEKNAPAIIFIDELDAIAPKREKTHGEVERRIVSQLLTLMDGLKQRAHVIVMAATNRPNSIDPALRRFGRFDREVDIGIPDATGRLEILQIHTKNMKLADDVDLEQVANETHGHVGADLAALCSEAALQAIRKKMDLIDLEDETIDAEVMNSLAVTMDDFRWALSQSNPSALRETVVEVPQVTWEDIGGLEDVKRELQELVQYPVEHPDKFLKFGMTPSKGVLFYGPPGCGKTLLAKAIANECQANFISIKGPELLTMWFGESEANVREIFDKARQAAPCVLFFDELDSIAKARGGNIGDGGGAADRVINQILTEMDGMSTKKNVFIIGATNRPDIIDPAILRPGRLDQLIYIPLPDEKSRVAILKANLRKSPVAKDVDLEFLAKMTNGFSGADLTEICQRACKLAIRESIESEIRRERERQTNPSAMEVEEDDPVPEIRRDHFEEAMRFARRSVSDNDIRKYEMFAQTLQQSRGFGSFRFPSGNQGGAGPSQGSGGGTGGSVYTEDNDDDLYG
The nature of experiment [3]: viability of HCT116 lacking mutant beta-catenin – cell-based, human colon tumor, dose response (AID 1045).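 Also: HCT116 colon tumor cells with beta catenin knocked out; cells exposed to compound for 60 hours.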 The class given is functional.
A short description of experiment [4]: viability of PTEN-deleted HCT116 cells – cell-based, HCT116 PTEN knockout, dose response (AID 1047).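 Also: HCT116 colon tumor cells with PTEN knocked out; cells exposed to compound for 60 hours before readout; potency for loss of cell viability measured by luminescence.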 Type of experiment: functional.
The target in experiment [5] is T1, Rac GTPase-activating protein 1 (Homo sapiens, UniProt Q9H0H5).
T1 sequence (Q9H0H5 whole entry): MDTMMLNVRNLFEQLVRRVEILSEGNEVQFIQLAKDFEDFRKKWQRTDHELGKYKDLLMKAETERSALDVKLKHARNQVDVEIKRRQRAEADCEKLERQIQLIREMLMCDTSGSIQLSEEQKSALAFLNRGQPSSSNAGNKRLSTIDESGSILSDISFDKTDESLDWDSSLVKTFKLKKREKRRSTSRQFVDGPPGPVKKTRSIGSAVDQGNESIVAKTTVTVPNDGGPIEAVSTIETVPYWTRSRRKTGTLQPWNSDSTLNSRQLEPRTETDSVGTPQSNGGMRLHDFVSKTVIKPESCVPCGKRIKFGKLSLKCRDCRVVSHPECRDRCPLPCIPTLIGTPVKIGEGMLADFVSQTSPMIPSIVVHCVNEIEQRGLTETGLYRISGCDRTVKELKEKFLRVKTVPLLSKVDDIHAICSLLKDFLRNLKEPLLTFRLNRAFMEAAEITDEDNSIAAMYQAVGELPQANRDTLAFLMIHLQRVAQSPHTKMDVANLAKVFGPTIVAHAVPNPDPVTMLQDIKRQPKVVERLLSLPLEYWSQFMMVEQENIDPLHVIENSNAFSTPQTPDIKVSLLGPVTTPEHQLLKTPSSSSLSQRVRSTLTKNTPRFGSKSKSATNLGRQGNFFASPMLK
As to the kind of experiment: blockers of MgcRacGAP-driven Rac1 GTP hydrolysis – biochemical, ADP Hunter fluorescence, primary and confirmatory, confirmation (AID 624330). The class given is functional.

The nature of experiment [6]: viability loss in HeLa cells – cytotoxicity control for MgcRacGAP inhibitor project, dose response (AID 624300). The class given is functional.
For another experiment, the system named is Vero. Nature of the experiment: viability of Vero cells under compound – cytotoxicity control for flavivirus capping enzyme inhibitors (AID 588742). The class given is functional. To be noted: Chlorocebus sabaeus.
A further experiment addresses Galanin receptor type 2 (Homo sapiens, UniProt O43603). As to the kind of experiment: Dose Response cell-based high-throughput screening assay to identify antagonists of galanin receptor 2 (GALR2). [Related pubchem assays: 828, 866 ]. The class given is functional.
The target in experiment [7] is T2, Mannose-6-phosphate isomerase (Homo sapiens, UniProt P34949).
T2 sequence (P34949 whole entry): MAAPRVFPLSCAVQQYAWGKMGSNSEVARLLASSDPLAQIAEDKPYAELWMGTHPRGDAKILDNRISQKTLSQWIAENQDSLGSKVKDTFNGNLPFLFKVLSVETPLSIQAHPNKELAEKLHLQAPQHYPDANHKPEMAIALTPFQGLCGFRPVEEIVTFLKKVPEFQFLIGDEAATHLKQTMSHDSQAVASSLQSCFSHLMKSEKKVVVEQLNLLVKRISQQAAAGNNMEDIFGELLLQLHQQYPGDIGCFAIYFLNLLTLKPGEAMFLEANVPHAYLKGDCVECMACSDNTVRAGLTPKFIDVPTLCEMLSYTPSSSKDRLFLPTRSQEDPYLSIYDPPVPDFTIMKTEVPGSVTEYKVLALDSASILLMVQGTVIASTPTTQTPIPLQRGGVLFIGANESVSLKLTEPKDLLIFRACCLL
Nature of the experiment: MPI inhibition at elevated mannose 6-phosphate – biochemical, fluorescence intensity, high mannose 6-phosphate, primary screen (AID 1220).

Experiment [8] deals with T3, Histone-lysine N-methyltransferase NSD2 (Homo sapiens, UniProt O96028).
T3 sequence (O96028 whole entry): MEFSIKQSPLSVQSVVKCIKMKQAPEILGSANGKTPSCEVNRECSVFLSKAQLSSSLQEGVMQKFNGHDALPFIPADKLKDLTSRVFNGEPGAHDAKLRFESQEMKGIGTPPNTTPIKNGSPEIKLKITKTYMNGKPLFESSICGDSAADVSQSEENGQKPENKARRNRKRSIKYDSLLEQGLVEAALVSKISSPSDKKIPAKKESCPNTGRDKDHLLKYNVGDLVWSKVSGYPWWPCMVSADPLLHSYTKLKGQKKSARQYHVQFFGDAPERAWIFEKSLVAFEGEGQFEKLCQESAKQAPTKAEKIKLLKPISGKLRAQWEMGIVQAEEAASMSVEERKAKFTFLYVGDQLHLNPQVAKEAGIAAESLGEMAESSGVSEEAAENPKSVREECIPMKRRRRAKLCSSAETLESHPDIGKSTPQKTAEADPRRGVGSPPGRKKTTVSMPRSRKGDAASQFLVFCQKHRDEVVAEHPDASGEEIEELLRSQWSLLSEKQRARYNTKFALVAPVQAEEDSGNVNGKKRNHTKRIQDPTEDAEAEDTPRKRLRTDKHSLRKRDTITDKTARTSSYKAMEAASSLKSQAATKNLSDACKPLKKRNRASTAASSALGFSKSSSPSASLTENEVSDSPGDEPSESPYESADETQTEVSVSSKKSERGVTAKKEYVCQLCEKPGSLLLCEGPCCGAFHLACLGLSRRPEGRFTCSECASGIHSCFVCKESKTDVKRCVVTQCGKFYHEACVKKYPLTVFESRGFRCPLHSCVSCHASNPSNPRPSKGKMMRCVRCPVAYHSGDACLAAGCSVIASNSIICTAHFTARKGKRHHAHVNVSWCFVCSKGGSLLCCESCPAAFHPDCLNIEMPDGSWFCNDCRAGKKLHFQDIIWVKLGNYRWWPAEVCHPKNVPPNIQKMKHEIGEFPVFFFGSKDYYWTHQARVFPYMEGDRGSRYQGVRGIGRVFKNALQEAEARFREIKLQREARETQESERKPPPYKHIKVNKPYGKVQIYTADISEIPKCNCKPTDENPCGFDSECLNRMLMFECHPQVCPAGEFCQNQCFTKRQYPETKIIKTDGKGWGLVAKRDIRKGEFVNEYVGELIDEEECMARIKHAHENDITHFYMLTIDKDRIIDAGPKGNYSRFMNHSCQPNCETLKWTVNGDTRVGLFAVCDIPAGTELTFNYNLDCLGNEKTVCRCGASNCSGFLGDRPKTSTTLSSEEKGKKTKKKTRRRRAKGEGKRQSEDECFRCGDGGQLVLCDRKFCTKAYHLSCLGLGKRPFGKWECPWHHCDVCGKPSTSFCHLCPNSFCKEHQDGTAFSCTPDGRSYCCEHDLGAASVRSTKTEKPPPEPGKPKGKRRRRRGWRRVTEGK
Type of experiment: biochemical.

The target in another experiment is Nonstructural protein 1 (Influenza A virus, UniProt Q194T2). The class given is functional, Influenza A virus (A/California/07/2009(H1N1)).
Nonstructural protein 1, sequence (Q194T2 whole entry): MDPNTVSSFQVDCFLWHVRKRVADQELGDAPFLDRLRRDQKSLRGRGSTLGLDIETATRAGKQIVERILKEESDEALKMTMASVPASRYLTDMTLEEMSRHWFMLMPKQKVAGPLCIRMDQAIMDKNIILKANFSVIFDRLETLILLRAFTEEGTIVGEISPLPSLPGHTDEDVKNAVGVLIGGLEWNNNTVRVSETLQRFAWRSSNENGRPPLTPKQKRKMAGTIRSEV
Another experiment deals with NADPH oxidase 1 (Homo sapiens, UniProt Q9Y5S8). As to the kind of experiment: Late-stage luminescence-based cell-based dose response assay to identify inhibitors of NADPH oxidase 1 (NOX1): Synthesized analogs 2. Type of experiment: functional.
NADPH oxidase 1, sequence (Q9Y5S8 whole entry): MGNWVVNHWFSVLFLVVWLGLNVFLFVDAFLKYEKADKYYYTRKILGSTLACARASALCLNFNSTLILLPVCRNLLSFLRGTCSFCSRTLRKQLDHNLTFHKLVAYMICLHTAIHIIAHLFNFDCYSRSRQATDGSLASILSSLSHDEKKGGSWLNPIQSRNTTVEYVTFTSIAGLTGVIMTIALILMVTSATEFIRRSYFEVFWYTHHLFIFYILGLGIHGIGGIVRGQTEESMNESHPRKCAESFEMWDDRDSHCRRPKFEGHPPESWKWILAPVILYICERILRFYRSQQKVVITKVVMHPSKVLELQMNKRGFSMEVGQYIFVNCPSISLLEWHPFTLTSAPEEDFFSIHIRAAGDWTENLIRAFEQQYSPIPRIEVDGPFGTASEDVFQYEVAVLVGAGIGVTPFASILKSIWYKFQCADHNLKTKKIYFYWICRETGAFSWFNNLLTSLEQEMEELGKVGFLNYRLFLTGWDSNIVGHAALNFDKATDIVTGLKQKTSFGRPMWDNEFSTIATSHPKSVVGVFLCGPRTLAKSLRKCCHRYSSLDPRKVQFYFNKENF
Experiment [9] concerns the target Peroxisome proliferator-activated receptor gamma/Nuclear receptor corepressor 2 (Homo sapiens, UniProt P37231+Q9Y618). The class given is functional.
Experiment [10] deals with Photoreceptor-specific nuclear receptor (Homo sapiens, UniProt Q9Y5X4). The class given is functional.
Experiment [11] addresses T4, Polyadenylate-binding protein 1 (Homo sapiens, UniProt P11940). Nature of the experiment: MLLE binding blockers, Cy5 peptide tracer – biochemical, fluorescence polarization, Cy5-PAM2 peptide, secondary, miRNA deadenylation inhibitor project, dose response (AID 602260). The class given is functional. The settings on record: read-out: IC50_Mean. (In general: In fluorescence polarisation assays a small probe gives low polarisation when free and higher when bound to something large.)

Experiment [12] addresses T4, Polyadenylate-binding protein 1. As to the kind of experiment: MLLE domain peptide-binding blockers, IC50 – biochemical, fluorescence polarization, FITC-PAM2 peptide, dose response (AID 602259). Type of experiment: functional. The settings on record: read-out: IC50_Mean.
Experiment [13] is described as follows: Luminescence Cell-Based Dose Response to Identify Activators of 5'UTR Stem-Loop Driven Prion Protein mRNA Translation in H4-C Neuroglioblastoma Cells. [Related pubchem assays: 1829 (Project Summary), 1814 (Primary HTS)]. Type of experiment: functional.
Another experiment has as its target Estrogen receptor beta (Homo sapiens, UniProt Q92731).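 Also: recombinant ER-beta bound to coactivator SRC1 peptide in presence of estradiol agonist; inhibitors block coactivator peptide binding and lower the FRET signal.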
Experiment [14] in a line: Luminescence Cell-Based Dose Response HTS to Identify Activators of Luciferase Translation or Activity in H4 […] Cells. [Related pubchem assays: 1829 (Project Summary), 1814 (Primary HTS)]. The class given is functional.
Experiment [15] can be described thus: fluconazole-exposed Candida albicans growth modulators – fluorescence, retest, confirmation (AID 2467). The class given is functional, cell-based.
The nature of experiment [16]: Luminescence Cell-Based Dose Confirmation to Identify Activators of 5'UTR Stem-Loop Driven Alpha-Synuclein mRNA Translation in H4 Neuroglioblastoma Cells. [Related pubchem assays: 1829 (Project Summary), 1814 (Primary HTS)]. The class given is functional.
The target in experiment [17] is Voltage-gated inwardly rectifying potassium channel KCNH2 (Homo sapiens, UniProt Q12809). Nature of the experiment: concentration-dependent hERG rescue from blockers – cell-based, thallium flux, dose response (AID 2121). The class given is ADME. In general terms: hERG is a cardiac potassium channel; its block is linked to QT prolongation.
Experiment [18] is described as follows: NIH-3T3 fibroblast cytotoxicity, dose response, cytotoxicity control, cell-based, fluorescence, Alamar Blue, secondary assay (AID 2327).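 Also: NIH-3T3 mouse fibroblasts cultured with fluconazole at 8 µg/mL.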 The class given is functional.
Experiment [19] can be described thus: Luminescence Cell-Based Dose Response to Identify Activators of Luciferase Translation or Activity in H4-C Neuroglioblastoma Cells. [Related pubchem assays: 1829 (Project Summary), 1814 (Primary HTS)]. The class given is functional.
Experiment [20] can be described thus: HepG2 cell cytotoxicity, dose response, cytotoxicity control for non-replicating M. tuberculosis project (AID 489018). To be noted: Mycobacterium tuberculosis. The class given is functional.
A short description of experiment [21]: Vero E6 cell cytotoxicity, dose response, cytotoxicity control for non-replicating M. tuberculosis project, secondary assay (AID 492998). Type of experiment: functional, VeroE6. The settings on record: Vero C1008.
The target of experiment [22] is Aryl hydrocarbon receptor (Homo sapiens, UniProt P35869). Nature of the experiment: Luminescence-based cell-based high throughput dose response assay for activators of the Aryl Hydrocarbon Receptor (AHR). [Related pubchem assays: 2796 (Primary screen (AHR activators in singlicate)), 2845 (Confirmation screen (AHR activators in triplicate)), 434939 (Counterscreen (PXR activators in triplicate)), 2804 (Summary (AHR activators))]. The class given is ADME.
Aryl hydrocarbon receptor, sequence (P35869 whole entry): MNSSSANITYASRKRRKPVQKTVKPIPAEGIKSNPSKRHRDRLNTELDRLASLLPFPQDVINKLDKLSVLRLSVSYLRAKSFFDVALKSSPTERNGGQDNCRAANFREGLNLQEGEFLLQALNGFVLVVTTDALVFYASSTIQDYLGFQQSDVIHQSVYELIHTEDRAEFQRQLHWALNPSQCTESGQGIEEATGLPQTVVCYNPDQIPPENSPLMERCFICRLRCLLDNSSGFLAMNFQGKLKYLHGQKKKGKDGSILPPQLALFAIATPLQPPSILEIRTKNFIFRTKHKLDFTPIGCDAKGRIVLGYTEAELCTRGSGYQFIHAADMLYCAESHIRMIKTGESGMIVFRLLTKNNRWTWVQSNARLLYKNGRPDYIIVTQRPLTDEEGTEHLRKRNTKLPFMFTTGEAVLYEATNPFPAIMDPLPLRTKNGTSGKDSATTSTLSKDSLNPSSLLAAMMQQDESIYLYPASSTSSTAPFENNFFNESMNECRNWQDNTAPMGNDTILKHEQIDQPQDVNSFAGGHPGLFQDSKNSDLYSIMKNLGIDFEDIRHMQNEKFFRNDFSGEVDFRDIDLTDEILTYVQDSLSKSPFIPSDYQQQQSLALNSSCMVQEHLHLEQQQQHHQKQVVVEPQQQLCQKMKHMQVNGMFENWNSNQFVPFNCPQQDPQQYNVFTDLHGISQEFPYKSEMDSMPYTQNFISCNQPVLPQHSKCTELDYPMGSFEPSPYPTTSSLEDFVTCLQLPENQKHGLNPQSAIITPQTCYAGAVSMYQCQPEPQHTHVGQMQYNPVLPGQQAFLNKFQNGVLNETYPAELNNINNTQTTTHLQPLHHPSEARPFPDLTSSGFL

Experiment [23] can be described thus: Trypanosoma cruzi growth suppression in host cells – NIH3T3 host cells, beta-gal luminescence, confirmation (AID 2044).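 Also: intracellular parasites grown in NIH/3T3 mouse fibroblasts as host cells; luminescent beta-galactosidase reporter signal from transgenic T. cruzi replicating inside host cells; inhibitors lower the luminescence signal.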 Type of experiment: functional, cell-based.
A short description of a further experiment: cells. The class given is functional.
The nature of experiment [24]: THP-1 cell cytotoxicity, dose response, cytotoxicity control for non-replicating M. tuberculosis project (AID 489025). The class given is functional.
Experiment [25] in a line: NIH3T3 cell viability loss – ATP luminescence, mouse fibroblasts, counter-screen, dose response (AID 2010).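 Also: cells exposed to compound for about 90 hours before reading.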 The class given is functional, cell-based.

Active and inactive are the calls of the source. A value given as a limit tells only on which side of the number the result lay.

T4 sequence (P11940 whole entry): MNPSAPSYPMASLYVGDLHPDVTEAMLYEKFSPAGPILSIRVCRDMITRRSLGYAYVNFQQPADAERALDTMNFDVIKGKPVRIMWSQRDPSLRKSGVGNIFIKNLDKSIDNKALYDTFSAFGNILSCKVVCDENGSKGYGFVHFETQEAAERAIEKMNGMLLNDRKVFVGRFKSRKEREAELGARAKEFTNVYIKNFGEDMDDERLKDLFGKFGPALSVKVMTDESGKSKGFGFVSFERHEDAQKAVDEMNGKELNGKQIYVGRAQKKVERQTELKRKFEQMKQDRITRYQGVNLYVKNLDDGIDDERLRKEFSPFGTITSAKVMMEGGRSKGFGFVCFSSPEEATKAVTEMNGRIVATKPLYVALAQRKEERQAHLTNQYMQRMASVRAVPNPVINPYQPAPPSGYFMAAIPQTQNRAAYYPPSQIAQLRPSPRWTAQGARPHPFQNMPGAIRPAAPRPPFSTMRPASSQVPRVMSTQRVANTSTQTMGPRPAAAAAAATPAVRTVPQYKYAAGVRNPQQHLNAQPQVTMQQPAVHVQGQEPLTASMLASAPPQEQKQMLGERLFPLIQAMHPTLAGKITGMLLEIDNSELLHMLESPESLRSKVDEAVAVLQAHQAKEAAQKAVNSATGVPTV
Transitional endoplasmic reticulum ATPase (Homo sapiens, UniProt P55072, C522A), sequence (P55072 2-806 C522A limits assumed): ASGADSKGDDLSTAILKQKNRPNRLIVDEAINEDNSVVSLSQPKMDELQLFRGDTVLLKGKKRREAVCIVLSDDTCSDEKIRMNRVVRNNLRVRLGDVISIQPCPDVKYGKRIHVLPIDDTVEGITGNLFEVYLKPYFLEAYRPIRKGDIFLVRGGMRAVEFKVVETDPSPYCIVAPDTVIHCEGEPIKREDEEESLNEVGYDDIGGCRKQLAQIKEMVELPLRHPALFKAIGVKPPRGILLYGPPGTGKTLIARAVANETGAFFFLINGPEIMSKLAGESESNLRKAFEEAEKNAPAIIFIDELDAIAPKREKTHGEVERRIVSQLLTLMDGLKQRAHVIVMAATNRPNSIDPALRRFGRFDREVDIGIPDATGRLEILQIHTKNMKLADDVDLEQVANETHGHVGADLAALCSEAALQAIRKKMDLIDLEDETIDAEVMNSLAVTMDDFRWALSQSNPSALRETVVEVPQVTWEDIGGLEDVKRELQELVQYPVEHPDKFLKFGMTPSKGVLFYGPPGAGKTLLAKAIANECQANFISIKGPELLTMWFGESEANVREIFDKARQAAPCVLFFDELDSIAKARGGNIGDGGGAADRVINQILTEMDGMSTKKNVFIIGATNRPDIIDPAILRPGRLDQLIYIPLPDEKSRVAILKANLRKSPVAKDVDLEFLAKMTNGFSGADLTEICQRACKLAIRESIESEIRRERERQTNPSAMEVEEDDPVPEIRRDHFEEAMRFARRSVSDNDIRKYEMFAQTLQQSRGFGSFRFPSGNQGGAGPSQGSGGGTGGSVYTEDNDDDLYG
Galanin receptor type 2, sequence (O43603 whole entry): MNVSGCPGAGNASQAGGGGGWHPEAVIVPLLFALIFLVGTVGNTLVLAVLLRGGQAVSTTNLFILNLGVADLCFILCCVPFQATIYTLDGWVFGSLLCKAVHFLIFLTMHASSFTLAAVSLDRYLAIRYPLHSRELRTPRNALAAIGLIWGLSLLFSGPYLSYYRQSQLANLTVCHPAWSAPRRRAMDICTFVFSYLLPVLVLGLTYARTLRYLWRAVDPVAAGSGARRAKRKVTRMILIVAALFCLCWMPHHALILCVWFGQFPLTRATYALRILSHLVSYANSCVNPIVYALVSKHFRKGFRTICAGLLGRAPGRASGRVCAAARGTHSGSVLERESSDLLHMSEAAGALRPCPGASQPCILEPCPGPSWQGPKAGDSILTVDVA
Estrogen receptor beta, sequence (Q92731 whole entry): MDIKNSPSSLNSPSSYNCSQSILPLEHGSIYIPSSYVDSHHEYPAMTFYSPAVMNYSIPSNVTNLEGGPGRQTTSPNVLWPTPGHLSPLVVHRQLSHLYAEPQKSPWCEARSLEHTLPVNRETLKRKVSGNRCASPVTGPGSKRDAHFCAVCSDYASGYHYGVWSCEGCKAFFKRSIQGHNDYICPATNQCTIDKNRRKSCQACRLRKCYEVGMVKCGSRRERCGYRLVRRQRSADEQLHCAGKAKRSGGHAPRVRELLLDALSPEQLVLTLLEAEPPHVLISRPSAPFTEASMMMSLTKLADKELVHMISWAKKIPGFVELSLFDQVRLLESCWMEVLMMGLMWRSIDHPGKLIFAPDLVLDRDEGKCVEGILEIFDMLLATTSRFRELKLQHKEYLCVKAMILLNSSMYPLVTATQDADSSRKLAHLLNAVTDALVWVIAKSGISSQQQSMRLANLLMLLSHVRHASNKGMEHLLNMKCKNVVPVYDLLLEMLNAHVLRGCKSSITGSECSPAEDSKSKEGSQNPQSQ

For the compound `CCOC(=O)/C(C#N)=C/c1c2ccccc2cc2ccccc12`, the IC50 in [1] and in experiment [2] was > 50 µM (not active) each time.

Turning to `CN(C)c1ccc(NC2=C(Cl)C(=O)c3ccccc3C2=O)cc1`, the EC50 was 3.94 µM (active) in experiment [3] and 6.29 µM (active) in experiment [4]. The IC50 in experiment [5] is 122 µM (active); at Galanin receptor type 2, 8.84 µM (active); in experiment [7], > 50 µM (not active); on Nonstructural protein 1, 7.36 µM (active). Also, the CC50 in experiment [6] was 16.1 µM (active); with Vero, 32.2 µM (active). Further, in experiment [8], the AC50 is 5.02 µM (active).

Take `CC(=O)c1ccc2c(c1)N(C(=O)Nc1ccccc1)c1ccccc1S2`: the IC50 on NADPH oxidase 1 was 1.56 µM (active).

For the compound `Cc1ccc(C(=O)Nc2nc3ccccc3c(=O)s2)cc1`, the IC50 in experiment [9] is 2.71 µM (active); in experiment [10], > 39.8 µM (not active); in [11], > 66 µM (inactive); in [12], > 66 µM (inactive); at Estrogen receptor beta it was > 50 µM (not active). Also, the half-maximal effective concentration (EC50) in [13] was 0.311 µM (active); in experiment [14] it was < 0.1 µM (inconclusive); in [15] it was 10.2 µM (active); in [16], 0.295 µM (active); in experiment [17], 2.74 µM (active); in experiment [18] it was > 160 µM (inactive). In addition, the EC50 in experiment [19] is 0.303 µM (active).

As for `COc1ccc(/C=N/Nc2cc(C)nc3ccccc23)cc1`, the CC50 is 12.5 µM (active) in [20], 11 µM (active) in [21] and 12.1 µM (active) in experiment [24]. For the same compound, the figures for the EC50 in experiment [22], in experiment [23] and in [25] were > 1.13 µM (active), 2.35 µM (active) and 11.2 µM (active), respectively. For the same compound, the IC50 in the experiment “cells” was 11.1 µM (active).

As a reminder, the EC50 is the concentration at which the effect is half-maximal. What is called CC50 is the concentration giving 50% cytotoxicity. One may read the AC50 as the midpoint of the concentration-response curve, whichever way the signal moves.

The values are drawn from ChEMBL document CHEMBL1201862, “PubChem BioAssay data set” (2004).
